Measured values taken from patent US7358268B2, “Imidazole derivatives as factor Xa inhibitors” (Sanofi-Aventis Deutschland GmbH, priority 2002, dated 2008).

molecular target: T1, human factor Xa (Homo sapiens, UniProt P00742); assay: Factor Xa assay (chromogenic, purified enzyme); type: biochemical; conditions: inhibition constant for factor Xa; chromogenic substrate S-2765 140 μM, enzyme 0.5 nM, 25° C., pH 7.8; Ki calculated from IC50 (Ki=IC50/{1+(substrate concentration/Km)}); read-out: Ki(FXa)
T1 construct: 25 μl human factor Xa (Enzyme Research Laboratories, Inc; South Bend, Ind.) in TBS-PEG; purchased Enzyme Research Laboratories, Inc; South Bend, Ind
T1 sequence (P00742 235-488 limits assumed): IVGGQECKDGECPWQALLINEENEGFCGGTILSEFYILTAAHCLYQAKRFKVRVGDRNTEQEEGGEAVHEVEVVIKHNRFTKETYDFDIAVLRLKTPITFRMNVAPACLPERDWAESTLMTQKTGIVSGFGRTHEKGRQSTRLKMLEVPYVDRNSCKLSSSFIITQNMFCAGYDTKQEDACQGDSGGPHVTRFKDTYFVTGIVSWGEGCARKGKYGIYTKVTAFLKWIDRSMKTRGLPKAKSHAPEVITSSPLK
T1 sequence (P00742 41-179 partner limits assumed): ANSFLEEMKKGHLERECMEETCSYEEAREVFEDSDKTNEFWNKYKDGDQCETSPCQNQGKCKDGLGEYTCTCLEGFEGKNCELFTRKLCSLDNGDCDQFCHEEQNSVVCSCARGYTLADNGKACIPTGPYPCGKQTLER
Procedure: The ability of the compounds of the formula I to inhibit factor Xa or factor VIIa or other enzymes like thrombin, plasmin, or trypsin can be assessed by determining the concentration of the compound of the formula I that inhibits enzyme activity by 50%, i. e. the IC50 value, which was related to the inhibition constant Ki. Purified enzymes were used in chromogenic assays. The concentration of inhibitor that causes a 50% decrease in the rate of substrate hydrolysis was determined by linear regression after plotting the relative rates of hydrolysis (compared to the uninhibited control) versus the log of the concentration of the compound of formula I. For calculating the inhibition constant Ki, the IC50 value was corrected for competition with substrate using the formula Ki=IC50/{1+(substrate concentration/Km)} wherein Km is the Michaelis-Menten constant (Chen and Prusoff, Biochem. Pharmacol. 22 (1973), 3099-3108; I. H. Segal, Enzyme Kinetics, 1975, John Wiley & Sons, New York, 100-125; which were incorporated herein by reference). a) Factor Xa Assay
In the assay for determining the inhibition of factor Xa activity TBS-PEG buffer (50 mM Tris-HCl, pH 7.8, 200 mM NaCl, 0.05% (w/v) PEG-8000, 0.02% (w/v) NaN3) was used. The IC50 was determined by combining in appropriate wells of a Costar half-area microtiter plate 25 μl human factor Xa (Enzyme Research Laboratories, Inc.; South Bend, Ind.) in TBS-PEG; 40 μl 10% (v/v) DMSO in TBS-PEG (uninhibited control) or various concentrations of the compound to be tested diluted in 10% (v/v) DMSO in TBS-PEG; and substrate S-2765 (N(α)-benzyloxycarbonyl-D-Arg-Gly-L-Arg-p-nitroanilide; Kabi Pharmacia, Inc.; Franklin, Ohio) in TBS-PEG.
The assay was performed by pre-incubating the compound of formula I plus enzyme for 10 min. Then the assay was initiated by adding substrate to obtain a final volume of 100 μl. The initial velocity of chromogenic substrate hydrolysis was measured by the change in absorbance at 405 nm using a Bio-tek Instruments kinetic plate reader (Ceres UV900HDi) at 25° C. during the linear portion of the time course (usually 1.5 min after addition of substrate). The enzyme concentration was 0.5 nM and substrate concentration was 140 μM.

Compound | Ki
COC1CN(C(=O)c2cn(Cc3cc(-c4ccc(Cl)s4)on3)c(C(=O)NC3CCN(C(C)C)CC3)n2)C1 [Example 48, 1-[5-(5-Chloro-thiophen-2-yl)-isoxazol-3-ylmethyl]-4-(3-methoxy-azetidine-1-carbonyl)-1H-imidazole-2-carboxylic acid (1-isopropyl-piperidin-4-yl)-amide] | 91 nM
Cc1nc(-c2ncc(C(=O)NC3CCN(C(C)C)CC3)n2Cc2cc(-c3ccc(Cl)s3)on2)cs1 [Example 21, 3-[5-(5-Chloro-thiophen-2-yl)-isoxazol-3-ylmethyl]-2-(2-methyl-thiazol-4-yl)-3H-imidazole-4-carboxylic acid (1-isopropyl-piperidin-4-yl)-amide] | 243 nM
COC(=O)c1cn(Cc2cc(-c3ccc(Cl)s3)on2)c(C(=O)NC2CCN(C(C)C)CC2)n1 [Example 40, 1-[5-(5-Chloro-thiophen-2-yl)-isoxazol-3-ylmethyl]-2-(1-isopropyl-piperidin-4-ylcarbamoyl)-1H-imidazole-4-carboxylic acid methyl ester] | 20 nM
Cc1nc(C(N)=O)n(Cc2cc(-c3ccc(Cl)s3)on2)c1C(=O)NC1CCN(C(C)C)CC1 [Example 24, 3-[5-(5-Chloro-thiophen-2-yl)-isoxazol-3-ylmethyl]-5-methyl-3H-imidazole-2,4-dicarboxylic acid 2-amide 4-[(1-isopropyl-piperidin-4-yl)-amide]] | 22 nM
Cc1nc(Br)n(Cc2cc(-c3ccc(Cl)s3)on2)c1C(=O)NC1CCN(C(C)C)CC1 [Example 26, 2-Bromo-3-[5-(5-chloro-thiophen-2-yl)-isoxazol-3-ylmethyl]-5-methyl-3H-imidazole-4-carboxylic acid (1-isopropyl-piperidin-4-yl)-amide] | 3 nM
CC(C)N1CCC(NC(=O)c2nc(C(=O)NCCO)cn2Cc2cc(-c3ccc(Cl)s3)on2)CC1 [Example 47] | 77 nM
CC(C)N1CCC(NC(=O)c2cnc(-c3cccnc3)n2Cc2cc(-c3ccc(Cl)s3)on2)CC1 [Example 20, 3-[5-(5-Chloro-thiophen-2-yl)-isoxazol-3-ylmethyl]-2-pyridin-3-yl-3H-imidazole-4-carboxylic acid (1-isopropyl-piperidin-4-yl)-amide] | 358 nM
CC(C)N1CCC(NC(=O)c2nc(C(=O)OCC(=O)OC(C)(C)C)cn2Cc2cc(-c3ccc(Cl)s3)on2)CC1 [Example 46, 1-[5-(5-Chloro-thiophen-2-yl)-isoxazol-3-ylmethyl]-2-(1-isopropyl-piperidin-4-ylcarbamoyl)-1H-imidazole-4-carboxylic acid tert-butoxycarbonylmethyl ester] | 128 nM
CC(C)N1CCC(NC(=O)c2nc(C(N)=O)cn2Cc2cc(-c3ccc(Cl)s3)on2)CC1 [Example 41, 1-[5-(5-Chloro-thiophen-2-yl)-isoxazol-3-ylmethyl]-1H-imidazole-2,4-dicarboxylic acid 4-amide 2-[(1-isopropyl-piperidin-4-yl)-amide]] | 46 nM
COCc1ncc(C(=O)NC2CCN(C(C)C)CC2)n1CC(=O)Nc1ccc(Cl)cc1 [Example 30, 3-[(4-Chloro-phenylcarbamoyl)-methyl]-2-methoxymethyl-3H-imidazole-4-carboxylic acid (1-isopropyl-piperidin-4-yl)-amide] | 35 nM
CC(C)N1CCC(NC(=O)c2cnc(-c3c(Cl)cccc3Cl)n2Cc2cc(-c3ccc(Cl)s3)on2)CC1 [Example 15, 3-[5-(5-Chloro-thiophen-2-yl)-isoxazol-3-ylmethyl]-2-(2,6-dichloro-phenyl)-3H-imidazole-4-carboxylic acid (1-isopropyl-piperidin-4-yl)-amide] | 56 nM
CC(C)N1CCC(NC(=O)c2c(Cl)nc(-c3ccccc3)n2CC(=O)Nc2ccc(Cl)cn2)CC1 [Example 33, 5-Chloro-3-[(5-chloro-pyridin-2-ylcarbamoyl)-methyl]-2-phenyl-3H-imidazole-4-carboxylic acid (1-isopropyl-piperidin-4-yl)-amide] | 103 nM
CC(C)N1CCC(NC(=O)c2nc(C(=O)N(C)CCO)cn2Cc2cc(-c3ccc(Cl)s3)on2)CC1 [Example 42] | 126 nM
